Measured values as given in US6384042B2, “Systemic use of 5-HT3 receptor antagonists against rheumatic inflammatory processes” (priority 1999, dated 2002).

Tests used:
Type in all cases: in vivo
[1] = system: patient exhibiting rheumatoid arthritis and severe consequential synovial inflammation; assay: Treatment of synovial inflammation/synovitis consequent to inflammatory processes, trial on a patient (Example 1); details: for outcome of previous treatment: same rheumatoid arthritis patient, treatment before trial entry
Procedure: The subject is treated for 5 days sequentially with tropisetron administered at a dose of 2 mg/day i.v. Treatment results in amelioration of the synovial inflammation, a reduction of stiffness in the morning and remission from the formation of effusion in the kneejoint.

[2] = system: patient with meniscus damage and arthritic change leading to synovial inflammation with knee joint effusion; assay: Treatment of synovial inflammation with knee joint effusion, patient (Example 2)
Procedure: Two 2 mg doses of tropisetron are administered i.v. over a period of 17 days with 15 injections, one each day with a 2 days pause in therapy. […] The improvement in condition continues over a further 7 days observation following completion of therapy.

[3] = system: patient exhibiting marked dermatomyositis with bioptically verified vasculitis; assay: Treatment of dermatomyositis/vasculitis, patient (Example 3)
[4] = rheumatoid arthritis patient, 2 mg/day i.v. for 5 days
[5] = 3 injections i.v., each 2 mg, observed already after the first injection

Question: Which “outcome of previous treatment” value [1] does the source give for `CN(Cc1cnc2nc(N)nc(N)c2n1)c1ccc(C(=O)N[C@@H](CCC(=O)O)C(=O)O)cc1` [methotrexate] here?
Answer: The value was “largely unsuccessfully”.

Question: `Cn1cnc([N+](=O)[O-])c1Sc1ncnc2[nH]cnc12` [azathioprin] was tested. Which “outcome of previous treatment” value [1] did it give?
Answer: Its value is “largely unsuccessfully”.

Question: Which “formation of effusion in the knee joint” value [1, 4] does the source give for `CN1[C@@H]2CC[C@H]1C[C@@H](OC(=O)c1c[nH]c3ccccc13)C2` [tropisetron, Indol-3-yl-carboxylic acid-endo-8-methyl-8-aza-bicyclo[3,2,1]-oct-3-yl-ester] here?
Answer: The value was “remission”.

Question: What about the glucocorticoid requirements [1, 4] of the same compound?
Answer: Its glucocorticoid requirements is “marked reduction”.

Question: What about the “measure parameters for inflammation” value [1, 4] of the same compound?
Answer: The value was “reduction”.

Question: What about the “stiffness in the morning” value [1, 4] of the same compound?
Answer: Its value is “reduction”.

Question: What about the synovial inflammation [1, 4] of the same compound?
Answer: The synovial inflammation was “amelioration”.

Question: And the “movement of the knee joint” value ([2]; 2 mg i.v., 15 injections over 17 days)?
Answer: The value was “clearly improved”.

Question: And the pain ([2]; 24 hours after the first i.v. injection of 2 mg)?
Answer: Its pain is “significant improvement”.

Question: And the symptoms ([2]; following continuation of injections (2 mg i.v., 15 injections over 17 days))?
Answer: Its symptoms is “virtually free of symptoms”.

Question: And the “duration of continued improvement in condition after completion of therapy” value ([2]; observation following completion of therapy)?
Answer: Its value is 7 days.

Question: What about the “exudation from the knee joint” value ([2]; within 8 days, without any other medication) of the same compound?
Answer: The value was “completely inhibited”.

Question: What about the “massive reddening of the skin” value [3, 5] of the same compound?
Answer: The value was “Virtually complete remission”.

Question: And the pain symptoms [3, 5]?
Answer: Its pain symptoms is “clear reduction”.

Question: And the complaints in follow-up ([3]; over a period of one week following)?
Answer: Its complaints in follow-up is “substantially complaint free”.
